Test results taken from patent US12281057B2 (VERTEX PHARMACEUTICALS INCORPORATED, priority 2017, dated 2025).

Molecular target: truncated form of human NaV 1.8 with full channel activity (Homo sapiens, UniProt Q9Y5Y9)
Assay: E-VIPR Assay Method A for detecting and measuring Nav inhibition (HEK cells, membrane potential FRET dyes, electrical stimulation)
Format: cell-based
Conditions: HEK cells expressing human NaV 1.8, HS (human serum) in compound loading buffer, 11 point dose response, top dose 3 μM, Table 20, read-out: Nav 1.8 MedChem Optical Assay EVIPR Assay Method A HS IC50
In short: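 Read-out: FRET membrane-potential dye ratio (460/580 nm) before and during E-VIPR field stimulation at 10 Hz for 10 s, expressed as % activity between DMSO and positive controls. Cells: HEK with truncated human NaV1.8; compound preincubated 30 min at room temp, final DMSO 0.625%.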

Chain of truncated form of human NaV 1.8 with full channel activity (Q9Y5Y9 126-1722 limits assumed): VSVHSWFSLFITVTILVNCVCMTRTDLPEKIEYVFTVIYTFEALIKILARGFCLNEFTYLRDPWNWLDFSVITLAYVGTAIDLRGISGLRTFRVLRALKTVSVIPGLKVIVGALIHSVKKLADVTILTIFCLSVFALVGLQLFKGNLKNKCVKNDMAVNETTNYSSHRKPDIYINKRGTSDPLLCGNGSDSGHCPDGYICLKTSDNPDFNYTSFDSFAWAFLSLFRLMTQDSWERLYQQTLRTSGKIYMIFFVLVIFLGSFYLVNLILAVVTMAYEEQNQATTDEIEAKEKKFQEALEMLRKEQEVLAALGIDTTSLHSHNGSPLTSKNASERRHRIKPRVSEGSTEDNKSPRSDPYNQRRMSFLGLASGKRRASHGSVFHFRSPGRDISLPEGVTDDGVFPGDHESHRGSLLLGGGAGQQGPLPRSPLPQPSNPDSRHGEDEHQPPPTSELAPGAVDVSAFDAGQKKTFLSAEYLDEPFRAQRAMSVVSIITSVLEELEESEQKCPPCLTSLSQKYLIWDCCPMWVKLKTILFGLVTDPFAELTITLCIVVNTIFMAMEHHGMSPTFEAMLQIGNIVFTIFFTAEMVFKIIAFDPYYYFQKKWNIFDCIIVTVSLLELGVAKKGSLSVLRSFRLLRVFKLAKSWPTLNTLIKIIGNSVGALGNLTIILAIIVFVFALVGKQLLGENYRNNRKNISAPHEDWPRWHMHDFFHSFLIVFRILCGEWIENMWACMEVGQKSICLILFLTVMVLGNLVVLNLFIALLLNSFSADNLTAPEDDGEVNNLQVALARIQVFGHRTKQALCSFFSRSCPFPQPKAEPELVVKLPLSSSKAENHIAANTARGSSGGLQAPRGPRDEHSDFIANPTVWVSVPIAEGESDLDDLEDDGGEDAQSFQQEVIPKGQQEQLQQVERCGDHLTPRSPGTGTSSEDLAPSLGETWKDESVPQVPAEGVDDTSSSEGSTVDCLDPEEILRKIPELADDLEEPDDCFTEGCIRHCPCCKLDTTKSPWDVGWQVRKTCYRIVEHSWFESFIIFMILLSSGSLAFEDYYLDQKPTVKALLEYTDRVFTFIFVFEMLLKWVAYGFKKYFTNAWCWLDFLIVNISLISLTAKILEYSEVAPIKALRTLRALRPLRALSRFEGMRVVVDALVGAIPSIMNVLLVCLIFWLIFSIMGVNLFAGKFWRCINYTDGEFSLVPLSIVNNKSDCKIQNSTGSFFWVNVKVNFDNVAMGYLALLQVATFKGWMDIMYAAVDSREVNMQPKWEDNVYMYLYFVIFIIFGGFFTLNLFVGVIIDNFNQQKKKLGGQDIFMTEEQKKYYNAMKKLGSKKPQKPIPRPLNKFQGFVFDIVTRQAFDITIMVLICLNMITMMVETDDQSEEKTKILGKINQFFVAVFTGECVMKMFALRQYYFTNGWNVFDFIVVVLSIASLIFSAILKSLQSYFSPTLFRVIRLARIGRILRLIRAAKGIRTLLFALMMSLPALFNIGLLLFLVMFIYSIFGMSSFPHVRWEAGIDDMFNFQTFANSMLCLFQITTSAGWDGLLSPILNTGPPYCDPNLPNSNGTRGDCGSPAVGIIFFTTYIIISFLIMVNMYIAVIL

IC50 [µM]	SMILES
0.002	COc1c(Oc2ccc(C(F)(F)F)c(F)c2C(=O)Nc2ccnc(C(N)=O)c2)ccc(OC(F)(F)F)c1F [Compound 26, 4-[[2-fluoro-6-[3-fluoro-2-methoxy-4-(trifluoromethoxy)phenoxy]-3-(trifluoromethyl)benzoyl]amino]pyridine-2-carboxamide]
0.004	NC(=O)c1cc(NC(=O)c2c(Oc3ccc(OC(F)(F)F)cc3OC(F)F)ccc(C(F)(F)F)c2F)ccn1 [Compound 13, 4-[[6-[2-(difluoromethoxy)-4-(trifluoromethoxy)phenoxy]-2-fluoro-3-(trifluoromethyl)benzoyl]amino]pyridine-2-carboxamide]
0.006	NC(=O)c1cc(NC(=O)c2c(Oc3ccc(OC(F)(F)F)c(Cl)c3)ccc(C(F)(F)F)c2F)ccc1F [Compound 14, N-(3-carbamoyl-4-fluoro-phenyl)-6-[3-chloro-4-(trifluoromethoxy)phenoxy]-2-fluoro-3-(trifluoromethyl)benzamide]
0.01	COc1cc(OC(F)(F)F)ccc1Oc1cc(OC(F)F)cc(F)c1C(=O)Nc1ccnc(C(N)=O)c1 [Compound 20, 4-[[4-(difluoromethoxy)-2-fluoro-6-[2-methoxy-4-(trifluoromethoxy)phenoxy]benzoyl]amino]pyridine-2-carboxamide]

Same assay, conditions: HEK cells expressing human NaV 1.8, HS (human serum) in compound loading buffer, 11 point dose response, top dose 3 μM, Table 20A, read-out: Nav 1.8 MedChem Optical Assay EVIPR Assay Method A HS IC50

IC50 [µM]	SMILES
0.032	NC(=O)c1cc(NC(=O)c2c(Oc3ccc(OC(F)(F)F)cc3)ccc3c2CCC3(F)F)ccc1F [Compound 190, N-(3-Carbamoyl-4-fluoro-phenyl)-1,1-difluoro-5-[4-(trifluoromethoxy)phenoxy]indane-4-carboxamide]
0.047	[2H]C([2H])([2H])Oc1c(Oc2ccc(C(F)(F)F)c(F)c2C(=O)Nc2ccc(C(=O)NC)nc2)ccc(OC(F)(F)F)c1F [Compound 229, 5-[[2-Fluoro-6-[3-fluoro-2-(trideuteriomethoxy)-4-(trifluoromethoxy)phenoxy]-3-(trifluoromethyl)benzoyl]amino]-N-methyl-pyridine-2-carboxamide]
0.58	COc1cc(OC(F)(F)F)ccc1Oc1cc(C(F)(F)F)ncc1C(=O)Nc1cc(C)nc(C(N)=O)c1 [Compound 84, 4-[[4-[2-Methoxy-4-(trifluoromethoxy)phenoxy]-6-(trifluoromethyl)pyridine-3-carbonyl]amino]-6-methyl-pyridine-2-carboxamide]
0.26	COc1ccc(Oc2ccc(C(F)(F)F)c(F)c2C(=O)Nc2ccc(F)c(C(N)=O)c2)cn1 [Compound 56, N-(3-carbamoyl-4-fluoro-phenyl)-2-fluoro-6-[(6-methoxy-3-pyridyl)oxy]-3-(trifluoromethyl)benzamide]
0.054	NC(=O)c1ccc(NC(=O)c2c(Oc3ccc(OC(F)(F)F)cc3)ccc(C(F)(F)F)c2F)cc1 [Compound 264, N-(4-carbamoylphcnyl)-2-fluoro-6-(4-(trifluoromethoxy)phenoxy)-3-(trifluoromethyl)benzamide]
0.175	NC(=O)c1cc(NC(=O)c2c(Oc3ccc(OC(F)(F)F)cc3)ccc(C3CC3)c2F)ccn1 [Compound 72, 4-[[3-Cyclopropyl-2-fluoro-6-[4-(trifluoromethoxy)phenoxy]benzoyl]amino]pyridine-2-carboxamide]
0.15	NC(=O)c1cc(NC(=O)c2cc(F)c(C(F)(F)F)cc2Oc2ccc(OC(F)(F)F)cc2)ccc1F [Compound 77, N-(3-Carbamoyl-4-fluoro-phenyl)-5-fluoro-2-[4-(trifluoromethoxy)phenoxy]-4-(trifluoromethyl)benzamide]
0.17	COc1cc(F)ccc1-c1cc(C(C)(C)C)ncc1C(=O)Nc1ccc(F)c(C(N)=O)c1 [Compound 199, 6-tert-butyl-N-(3-carbamoyl-4-fluoro-phenyl)-4-(4-fluoro-2-methoxy-phenyl)pyridine-3-carboxamide]
0.039	[2H]C([2H])([2H])Oc1cc(OC(F)(F)F)ccc1Oc1ccc(C(F)(F)F)c(OC)c1C(=O)Nc1cc(C(N)=O)ncc1C [Compound 146, 4-[[2-Methoxy-6-[2-(trideuteriomethoxy)-4-(trifluoromethoxy)phenoxy]-3-(trifluoromethyl)benzoyl]amino]-5-methyl-pyridine-2-carboxamide]
0.14	CCOc1c(C(F)(F)F)ncc(Oc2ccc(OC(F)(F)F)cc2OC)c1C(=O)Nc1cc(C(N)=O)ncc1C [Compound 210, N-(2-Carbamoyl-5-methyl-4-pyridyl)-3-ethoxy-5-[2-methoxy-4-(trifluoromethoxy)phenoxy]-2-(trifluoromethyl)pyridine-4-carboxamide]
0.022	NC(=O)c1cccc(NC(=O)c2c(Oc3ccc(OC(F)(F)F)cc3)ccc(C(F)(F)F)c2F)c1 [Compound 47, N-(3-carbamoylphenyl)-2-fluoro-6-[4-(trifluoromethoxy)phenoxy]-3-(trifluoromethyl)benzamide]
0.52	COc1cc(OC(F)(F)F)ccc1Oc1cncc(F)c1C(=O)Nc1cc(C(N)=O)ncc1C [Compound 151, 4-[[3-Fluoro-5-[2-methoxy-4-(trifluoromethoxy)phenoxy]pyridine-4-carbonyl]amino]-5-methyl-pyridine-2-carboxamide]
0.054	[2H]C([2H])([2H])Oc1cc(OC(F)(F)F)ccc1Oc1ccc(C(F)(F)F)c(F)c1C(=O)Nc1ccc(C(N)=O)cn1 [Compound 212, 6-[[2-Fluoro-6-[2-(trideuteriomethoxy)-4-(trifluoromethoxy)phenoxy]-3-(trifluoromethyl)benzoyl]amino]pyridine-3-carboxamide]
0.023	COc1cc(OC(F)(F)F)ccc1Oc1cnc(C(F)(F)F)c(OC)c1C(=O)Nc1cc(C(N)=O)ncc1C [Compound 144, N-(2-Carbamoyl-5-methyl-4-pyridyl)-3-methoxy-5-[2-methoxy-4-(trifluoromethoxy)phenoxy]-2-(trifluoromethyl)pyridine-4-carboxamide]
0.15	[2H]C([2H])([2H])Oc1cc(OC(F)(F)F)ccc1Oc1ccc(OC(F)F)c(F)c1C(=O)Nc1ccc(C(N)=O)nc1 [Compound 198, 5-[[3-(Difluoromethoxy)-2-fluoro-6-[2-(trideuteriomethoxy)-4-(trifluoromethoxy)phenoxy]benzoyl]amino]pyridine-2-carboxamide]
0.13	[2H]C([2H])([2H])Oc1cc(OC(F)(F)F)ccc1Oc1cc(OC(F)(F)F)ccc1C(=O)Nc1ccnc(C(N)=O)c1 [Compound 147, 4-[[2-[2-(Trideuteriomethoxy)-4-(trifluoromethoxy)phenoxy]-4-(trifluoromethoxy)benzoyl]amino]pyridine-2-carboxamide]
0.46	COc1cc(OC(F)(F)F)ccc1Oc1cc2c(cc1C(=O)Nc1ccc(C(N)=O)nc1)OC(F)(F)O2 [Compound 197, 5-[[2,2-Difluoro-6-[2-methoxy-4-(trifluoromethoxy)phenoxy]-1,3-benzodioxole-5-carbonyl]amino]pyridine-2-carboxamide]
0.006	COc1cc(OC(F)(F)F)ccc1Oc1cc(Cl)c(C)c(F)c1C(=O)Nc1cc(C(N)=O)ncc1C [Compound 211, 4-[[4-Chloro-2-fluoro-6-[2-methoxy-4-(trifluoromethoxy)phenoxy]-3-methyl-benzoyl]amino]-5-methyl-pyridine-2-carboxamide]
0.036	Cc1cnc(C(N)=O)cc1NC(=O)c1c(Oc2ccc(OC(F)(F)F)c(F)c2)ccc(Cl)c1F [Compound 245, 4-[[3-chloro-2-fluoro-6-[3-fluoro-4-(trifluoromethoxy)phenoxy]benzoyl]amino]-5-methyl-pyridine-2-carboxamide]
0.087	COc1cc(OC(F)(F)F)ccc1Oc1cc(C(F)(F)F)ccc1C(=O)Nc1ccc(F)c(C(N)=O)c1 [Compound 27, N-(3-Carbamoyl-4-fluoro-phenyl)-2-[2-methoxy-4-(trifluoromethoxy)phenoxy]-4-(trifluoromethyl)benzamide]
0.022	COc1cc(OC(F)(F)F)ccc1Oc1cc(C(F)(F)F)cc(F)c1C(=O)Nc1cc(C(N)=O)ncc1C [Compound 153, 4-[[2-Fluoro-6-[2-methoxy-4-(trifluoromethoxy)phenoxy]-4-(trifluoromethyl)benzoyl]amino]-5-methyl-pyridine-2-carboxamide]
0.009	COc1cc(OC(F)(F)F)ccc1Oc1ccc(C(F)(F)F)c(F)c1C(=O)Nc1cc(F)cc(C(N)=O)c1 [Compound 100, N-(3-carbamoyl-5-fluoro-phenyl)-2-fluoro-6-[2-methoxy-4-(trifluoromethoxy)phenoxy]-3-(trifluoromethyl)benzamide]
0.015	COc1cc(OC(F)(F)F)ccc1Oc1cc(C2C[C@@H]2C)ncc1C(=O)Nc1ccc(F)c(C(N)=O)c1 (mixture of isomers) [Compound 106, Racemic trans-N-(3-Carbamoyl-4-fluoro-phenyl)-4-[2-methoxy-4-(trifluoromethoxy)phenoxy]-6-(2-methylcyclopropyl)pyridine-3-carboxamide]
0.04	COc1cc(OC(F)(F)F)ccc1Oc1ccc(C(F)(F)F)c(OC)c1C(=O)Nc1ccc(C(N)=O)nc1 [Compound 202, 5-[[2-Methoxy-6-[2-methoxy-4-(trifluoromethoxy)phenoxy]-3-(trifluoromethyl)benzoyl]amino]pyridine-2-carboxamide]
0.018	NC(=O)c1cc(NC(=O)c2c(Oc3ccc(OC(F)(F)F)cc3)cc(OCc3ccccc3)c(C(F)(F)F)c2F)ccc1F [Compound 215, 4-Benzyloxy-N-(3-carbamoyl-4-fluoro-phenyl)-2-fluoro-6-[4-(trifluoromethoxy)phenoxy]-3-(trifluoromethyl)benzamide]
0.009	[2H]C([2H])([2H])Oc1c(Oc2ccc(OC(F)(F)F)c(F)c2C(=O)Nc2cc(C(N)=O)ncc2C)ccc(OC(F)(F)F)c1F [Compound 231, 4-[[2-Fluoro-6-[3-fluoro-2-(trideuteriomethoxy)-4-(trifluoromethoxy)phenoxy]-3-(trifluoromethoxy)benzoyl]amino]-5-methyl-pyridine-2-carboxamide]
